In ChEMBL document CHEMBL1132706 (J Med Chem, 1999):

How the values were obtained:
[1] = target: T1, Human immunodeficiency virus type 1 integrase (Human immunodeficiency virus 1, UniProt Q7ZJM1)
Description: Inhibition of HIV-1 integrase by radiolabeled oligonucleotide-based assay integration

[2] = target: T1, Human immunodeficiency virus type 1 integrase; remark: listed apart in the source
Description: Compound was evaluated for the inhibitory concentration against HIV-1 integrase by radiolabeled oligonucleotide-based assay 3''-processing

CEM-SS [3] = test: Compound was evaluated for the effect of Order of Addition on Cytoprotection against HIV-1RF at dilution 100, Add at infection; assay type: functional, Homo sapiens
CEM-SS [4] = test: Compound was evaluated for the effect of Order of Addition on Cytoprotection against HIV-1RF at dilution 100, Pretreat with 100 uM; assay type: functional, Homo sapiens
CEM-SS [5] = test: Compound was evaluated for the effect of Order of Addition on Cytoprotection against HIV-1RF at dilution 1000, Add at infection; assay type: functional, Homo sapiens
CEM-SS [6] = test: Compound was evaluated for the effect of Order of Addition on Cytoprotection against HIV-1RF at dilution 1000, Pretreat with 100 uM; assay type: functional, Homo sapiens
CEM-SS [7] = test: Compound was evaluated for the effect of Order of Addition on Cytoprotection against HIV-1RF at dilution 333, Add at infection; assay type: functional, Homo sapiens
CEM-SS [8] = test: Compound was evaluated for the effect of Order of Addition on Cytoprotection against HIV-1RF at dilution 333, Pretreat with 100 uM; assay type: functional, Homo sapiens
MT4 [9] = test: Concentration of compound required to protect 50% of MT-4 cells against retroviral cytopathic effects by HIV-1 ([…]); assay type: functional, cell-based; conditions: Homo sapiens
MT4 [10] = test: Concentration of compound required to reduce MT-4 cell viability by 50%; assay type: functional, cell-based; conditions: Homo sapiens
CEM-SS [11] = test: Compound was evaluated for the cytoprotection of CEM-SS cells by XTT cytoprotection assay through the NCI AIDS Screen; assay type: functional, cell-based; conditions: Homo sapiens
CEM-SS [12] = test: Compound was evaluated for the cytoprotection of CEM-SS cells by XTT cytoprotection assay through the NCI AIDS Screen; Not reached due to cytotoxicity; assay type: functional, cell-based, Homo sapiens
CEM-SS [13] = test: Compound was evaluated for the cytoprotection by XTT cytoprotection assay through the NCI AIDS Screen; assay type: functional, cell-based; conditions: Homo sapiens
CEM-SS [14] = test: Compound was evaluated for the effect of Order of Addition on Cytoprotection at dilution 333, Add at infection; assay type: functional, Homo sapiens
CEM-SS [15] = test: Compound was evaluated for the effect of Order of Addition on Cytoprotection against HIV-1RF at dilution 100, Pretreat and add 1 uM; assay type: functional, Homo sapiens
CEM-SS [16] = test: Compound was evaluated for the effect of Order of Addition on Cytoprotection against HIV-1RF at dilution 100, Pretreat and add 10 uM; assay type: functional, Homo sapiens
CEM-SS [17] = test: Compound was evaluated for the effect of Order of Addition on Cytoprotection against HIV-1RF at dilution 1000, Pretreat and add 1 uM; assay type: functional, Homo sapiens
CEM-SS [18] = test: Compound was evaluated for the effect of Order of Addition on Cytoprotection against HIV-1RF at dilution 1000, Pretreat and add 10 uM; assay type: functional, Homo sapiens
CEM-SS [19] = test: Compound was evaluated for the effect of Order of Addition on Cytoprotection against HIV-1RF at dilution 333, Pretreat and add 10 uM; assay type: functional, Homo sapiens
CEM-SS [20] = test: Compound was evaluated for the effect of Order of Addition on Cytoprotection against HIV-1RF at dilution 333,Pretreat and add 1 uM; assay type: functional, Homo sapiens

T1 sequence (Q7ZJM1 whole entry): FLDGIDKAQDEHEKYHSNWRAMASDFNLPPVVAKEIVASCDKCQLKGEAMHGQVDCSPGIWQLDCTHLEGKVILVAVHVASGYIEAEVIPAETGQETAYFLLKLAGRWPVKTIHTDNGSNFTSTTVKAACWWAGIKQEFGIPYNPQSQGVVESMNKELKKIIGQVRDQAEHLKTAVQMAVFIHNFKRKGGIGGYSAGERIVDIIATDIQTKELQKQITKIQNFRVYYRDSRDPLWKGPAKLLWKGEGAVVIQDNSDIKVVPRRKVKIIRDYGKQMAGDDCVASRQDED

Structure (SMILES)	IC50 [1] [µM]	IC50 [2] [µM]	IC50 (CEM-SS [11]) [µM]	other results
O=C(/C=C/c1ccc(O)c(O)c1)NC(COC(=O)/C=C/c1ccc(O)c(O)c1)C(=O)O (centres undefined)	1.7	3.3		
Cc1cn([C@H]2C[C@H](N=[N+]=[N-])[C@@H](CO)O2)c(=O)[nH]c1=O [ZIDOVUDINE]				Control (CEM-SS [3]): 35%; Control (CEM-SS [4]): 114%; Control (CEM-SS [5]): 5%; Control (CEM-SS [6]): 121%; Control (CEM-SS [7]): 3%; Control (CEM-SS [8]): 119%; EC50 (MT4 [9]): 5 nM; IC50 (MT4 [10]): 100 µM
O=C(/C=C/c1ccc(O)c(O)c1)NCCOC(=O)/C=C/c1ccc(O)c(O)c1	6.5	> 27.5	9.22	
O=C(/C=C/c1ccc(O)c(O)c1)OCCOC(=O)/C=C/c1ccc(O)c(O)c1	0.4	0.4		EC50 (CEM-SS [12]): Not reached; IC50 (CEM-SS [13]): 10 µM
CC(=O)Oc1ccc(/C=C/C(=O)OCCOC(=O)/C=C/c2ccc(OC(C)=O)c(OC(C)=O)c2)cc1OC(C)=O	> 100	> 100	6.7	
CC(=O)Oc1ccc(/C=C/C(=O)NCC(NC(=O)/C=C/c2ccc(OC(C)=O)c(OC(C)=O)c2)C(=O)O)cc1OC(C)=O (centres undefined)	4.1	4.1		
CC(=O)NC(COC(=O)/C=C/c1ccc(O)c(O)c1)C(=O)O (centres undefined)	111	333		
COC(=O)C(COC(=O)/C=C/c1ccc(OC(C)=O)c(OC(C)=O)c1)NC(=O)/C=C/c1ccc(OC(C)=O)c(OC(C)=O)c1 (centres undefined)	3.2	2.5		
COC(=O)[C@@H](CNC(=O)/C=C/c1ccc(OC)c(OC)c1)NC(=O)/C=C/c1ccc(OC)c(OC)c1	> 1000	> 1000		
CC(=O)Oc1ccc(/C=C/C(=O)O[C@@H](C)[C@H](C)OC(=O)/C=C/c2ccc(OC(C)=O)c(OC(C)=O)c2)cc1OC(C)=O	> 333	> 333	5.71	
C[C@H](OC(=O)/C=C/c1ccc(O)c(O)c1)[C@H](C)OC(=O)/C=C/c1ccc(O)c(O)c1	7.8	> 38.4	3.64	EC50 (CEM-SS [12]): Not reached
O=C(/C=C/c1ccc(O)c(O)c1)O[C@H](C(=O)O)[C@H](OC(=O)/C=C/c1ccc(O)c(O)c1)C(=O)O [CHICORIC ACID]				Control (CEM-SS [14]): 73%; Control (CEM-SS [3]): 141%; Control (CEM-SS [15]): 56%; Control (CEM-SS [16]): 114%; Control (CEM-SS [4]): 108%; Control (CEM-SS [5]): 60%; Control (CEM-SS [17]): 50%; Control (CEM-SS [18]): 135%; Control (CEM-SS [6]): 168%; Control (CEM-SS [19]): 82%; Control (CEM-SS [8]): 59%; Control (CEM-SS [20]): 92%
COC(=O)C(COC(=O)/C=C/c1ccc(OC(C)=O)c(OC(C)=O)c1)OC(=O)/C=C/c1ccc(OC(C)=O)c(OC(C)=O)c1 (centres undefined)	10.1	10.1		
